Broadly, the half-life is how long it takes for the measured level to halve. Low values mean fast loss, high ones slow loss.

Where a SMILES comes first, the peptide text is derived from it.

These results are taken from patent publication US20260217767A1, “NOVEL A4B7 THIOETHER PEPTIDE DIMER ANTAGONISTS” (Protagonist Therapeutics, Inc., priority 2014, published 2026).

Series [1] has as its system CD4+/CD45RO+ memory T cells. Kind of series: PBMC Memory T Cell Adhesion Assay. Type of series: cell-based, human. The method, then:
PBMC Memory T Cell Adhesion Assay
Fresh CD4+/CD45RO+ memory T cells were isolated from human peripheral blood mononuclear cell (PBMC) donors by Aragen Bioscience Inc. (Morgan Hill, CA). The assay plate was prepared using IgG Fc capture antibody (donkey anti human) immobilized at 500 ng/well in 50 mM sodium bicarbonate buffer, pH 9.5, ON, 4 C onto a Greiner Fluotrac plate (100 ul per well). The plate was rinsed two time with Blocking Buffer (25 mM Tris HCl, pH7.5, 150 mM NaCl, 1.5% BSA, 0.05% Tween), and blocked with Blocking Buffer for 2 hours at 37 C or 5 hours at RT using 200 ul per well. The Blocking Buffer was removed and either MAdCAM-1 or VCAM-1 at 400 ng/well in Blocking Buffer was added and the plate incubated overnight at 4 C (100 ul per well). The plate was washed two times with Blocking Buffer, and rinsed once with 200 ul Binding Media (DMEM phenol red free, 10 mM HEPES, 1×Na pyruvate, 1× Glutamine, and supplemented with 1 mM MnC12 prior to use). To prepare cells, approximately 25 million CD4+/CD45RO+ memory T cells were counted by trypan blue exclusion using a haemocytometer to determine viability and cell count. The cells were transferred to a 50 ml conical tube, and centrifuged at 1200 rpm for 10 minute. The media was aspirated and the cell pellet resuspended in 15 ml Binding Media. The cells were centrifuged again and resuspended in the appropriate amount of Binding Media to be used for assays (50 ul of cells per well at 2× the final density). To each well, and equal volume (50 ul) of test compound was added and the plate was incubated for 1.5 hours at 37 C, 5% CO2. Each well was rinsed 3× with 150 ul per well of Binding Media. […] The plate was incubated at 37 C, 5% CO2, for 45 minutes. The plate was protected from light by using black adhesive seals. Fluorescence intensity was measured using a Molecular Devices Gemini EM Fluorescent Plate Reader (Ex 485/Em530, Bottom Read, Reading Sensitivity=20). IC50 curves are generated using Graph Pad Prism and the curves analyzed using analyzed using a non-linear regression (four parameters) algorithm. The log (concentration) versus RFU (Ex485/Em530) was plotted to determine IC50 values.

Series [2] in a line: Simulated Intestinal Fluid (SIF) Stability Assay. The format is in vitro ADME. The settings on record: simulated gi fluid, porcine pancreatin. In short, it runs like this: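 Percent peptide remaining over time was measured by LC-MS/MS as the peak-area ratio to internal standard, and a first-order decay fit gave half-life. Digests contained 22 μM peptide and 1% pancreatin in pH 6.5 FaSSIF buffer at 37° C. Aliquots were quenched in organic solvent with formic acid.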

A short description of series [3]: Simulated Gastric Fluid (SGF) Stability Assay. Type of series: in vitro ADME. The settings on record: simulated gi fluid; porcine pepsin, pH 2, 37° C.; dimers, Table 7. The procedure: Simulated Gastric Fluid (SGF) Stability Assays
Studies were carried out in simulated gastric fluid (SGF) to evaluate intestinal stability of the peptide molecules of the instant invention. SGF was prepared by adding 20 mg NaCl, 32 mg porcine pepsin (MP Biochemicals, catalog 02102599), and 70 μl HCl to 10 ml water (final pH=2). Aliquots of SGF (0.5 ml each) were pre-warmed at 37° C. To start the reaction, 1 μl of peptide stock solution (10 mM in DMSO) was added to 0.5 ml SGF and thoroughly mixed such that the final peptide concentration was 20 μM. The reactions were incubated at 37° C. with gentle shaking. At each time point (0, 15, 30, 60 min) 50 μl aliquots were removed and added to 200 μl acetonitrile containing 0.1% formic acid to quench the reaction. Samples are stored at 4° C. until the end of the experiment and centrifuged at 10,000 rpm for 5 minutes. Aliquots of the supernatant were removed, diluted 1:1 into distilled water containing internal standard, and analyzed by LCMS/MS. Percent remaining at each timepoint was calculated based on the peak area response ratio of test to compound to internal standard. Time 0 was set to 100%, and all later timepoints were calculated relative to time 0. Half-lives were calculated by fitting to a first-order exponential decay equation using GraphPad.

Series [4] concerns the target T1, RPMI 8866 cells (Homo sapiens, UniProt P13612+P26010).
T1 sequence (P13612 34-1032): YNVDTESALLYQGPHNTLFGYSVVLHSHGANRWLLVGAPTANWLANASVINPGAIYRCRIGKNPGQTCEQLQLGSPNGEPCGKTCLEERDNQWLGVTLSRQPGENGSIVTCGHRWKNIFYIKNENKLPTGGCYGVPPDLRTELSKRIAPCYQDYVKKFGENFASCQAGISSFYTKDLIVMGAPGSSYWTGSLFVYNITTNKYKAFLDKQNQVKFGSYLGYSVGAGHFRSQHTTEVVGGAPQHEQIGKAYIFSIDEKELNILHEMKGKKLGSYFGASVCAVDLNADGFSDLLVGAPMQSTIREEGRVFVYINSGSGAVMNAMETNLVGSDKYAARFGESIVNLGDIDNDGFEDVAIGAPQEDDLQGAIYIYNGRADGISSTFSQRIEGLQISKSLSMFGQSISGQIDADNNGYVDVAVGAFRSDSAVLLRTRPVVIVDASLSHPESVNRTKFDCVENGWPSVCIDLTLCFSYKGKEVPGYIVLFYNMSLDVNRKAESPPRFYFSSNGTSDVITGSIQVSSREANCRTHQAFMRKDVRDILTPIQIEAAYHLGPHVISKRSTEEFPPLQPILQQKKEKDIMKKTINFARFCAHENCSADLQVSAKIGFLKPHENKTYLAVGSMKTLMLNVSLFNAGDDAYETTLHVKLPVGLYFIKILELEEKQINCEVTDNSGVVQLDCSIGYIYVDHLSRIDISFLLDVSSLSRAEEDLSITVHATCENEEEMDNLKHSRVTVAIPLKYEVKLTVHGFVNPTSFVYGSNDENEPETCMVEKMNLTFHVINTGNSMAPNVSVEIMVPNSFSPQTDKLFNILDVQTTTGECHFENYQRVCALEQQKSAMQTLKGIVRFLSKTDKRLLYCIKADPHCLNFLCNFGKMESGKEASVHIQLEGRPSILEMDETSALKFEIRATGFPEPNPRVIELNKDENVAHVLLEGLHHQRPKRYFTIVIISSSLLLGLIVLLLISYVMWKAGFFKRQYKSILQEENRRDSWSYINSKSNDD
T1 sequence (P26010 20-798): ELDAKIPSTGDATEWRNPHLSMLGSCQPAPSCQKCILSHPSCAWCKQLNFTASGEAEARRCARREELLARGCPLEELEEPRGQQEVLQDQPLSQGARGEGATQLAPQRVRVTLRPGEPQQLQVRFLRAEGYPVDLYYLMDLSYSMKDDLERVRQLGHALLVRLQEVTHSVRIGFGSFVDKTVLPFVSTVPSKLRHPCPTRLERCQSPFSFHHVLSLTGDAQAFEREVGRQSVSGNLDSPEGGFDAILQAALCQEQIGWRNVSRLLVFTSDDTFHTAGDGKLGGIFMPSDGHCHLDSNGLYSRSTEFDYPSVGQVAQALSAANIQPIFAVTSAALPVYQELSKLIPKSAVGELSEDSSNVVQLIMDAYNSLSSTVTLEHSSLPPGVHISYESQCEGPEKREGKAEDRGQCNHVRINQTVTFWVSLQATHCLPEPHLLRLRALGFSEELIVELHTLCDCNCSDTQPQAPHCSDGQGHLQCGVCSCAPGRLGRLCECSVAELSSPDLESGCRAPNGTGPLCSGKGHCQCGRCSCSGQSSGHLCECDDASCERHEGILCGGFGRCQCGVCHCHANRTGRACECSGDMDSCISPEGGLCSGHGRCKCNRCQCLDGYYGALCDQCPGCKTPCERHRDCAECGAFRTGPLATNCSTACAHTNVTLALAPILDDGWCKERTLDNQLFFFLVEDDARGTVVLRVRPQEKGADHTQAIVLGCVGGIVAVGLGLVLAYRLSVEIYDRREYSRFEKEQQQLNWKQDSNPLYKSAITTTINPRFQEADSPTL
Kind of series: α4β7-MAdCAM Cell Adhesion Assay. The format is cell-based. The settings on record: thioether peptide dimers, Table 7; read-out: Cell-Adhesion A4B7. Summed up: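 Peptide inhibition of adhesion measured with MAdCAM-1/Fc chimera immobilised at 200 ng/well and MnCl2-activated (1 mM) RPMI 8866 cells, 30-45 min at 37° C. Adherent cells remaining after three washes detected by MTT reduction at 570 nm, corrected for no-cell wells, giving dose response.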

A short description of series [5]: Dithiothreitol (DTT) Redox Stability Assay. The settings on record: 0.5 mM DTT, room temperature; control peptide monomers, Table 8. The format is physicochemical. The procedure: Studies were carried out under redox conditions to evaluate intestinal stability of the peptide molecules of the instant invention.
Dithiothreitol (DTT) Redox Stability Assay
The DTT stability assay was prepared by adding 5 μl of a 10 mM peptide stock solution in DMSO to 1 ml of 100 mM Tris-Cl, pH 7.5 (final peptide concentration is 50 μM). At time 0 min, 5 μl of a freshly thawed 100 mM DTT solution was added such that the final DTT concentration is 0.5 mM. The reactions were incubated at room temperature. At different time points up to 120 minutes, 50 μl aliquots were removed and the reaction was quenched by adding 10 ul of 5M acetic acid. To measure disappearance of the parent peptide, the quenched samples (30 μl) were analyzed by reverse phase HPLC and UV absorbance at 220 nm. Half-lives were calculated by fitting to a first-order exponential decay equation using Excel.

Setting [6] is: thioether peptide dimers, Table 7.
Setting [7] is: control peptide monomers, Table 8.

As for `CC(C)C[C@@H]1NC(=O)[C@H]([C@@H](C)O)NC(=O)[C@H](CC(=O)O)NC(=O)[C@H](CO)NC(=O)[C@H](CCCNC(=N)N)N(C)C(=O)c2ccccc2CSC(C)(C)[C@@H](C(=O)N[C@@H](Cc2c[nH]c3ccccc23)C(=O)N[C@H](CCC(=O)O)C(N)=O)NC1=O` [compound 98] (HELM PEPTIDE1{[meR].S.D.T.L.[Pen].W.[dE].[am]}|CHEM1{[O=C(c1ccccc1C[*:2])[*:1]]}$PEPTIDE1,CHEM1,1:R1-1:R1|PEPTIDE1,CHEM1,6:R3-1:R2$$$V2.0), the IC50 in series [1] (thioether monomer peptides, Table 6) is 100 to 1000 nM.
In series [1] (setting [6]), `CC(C)C[C@@H]1NC(=O)[C@H]([C@@H](C)O)NC(=O)[C@H](CC(=O)O)NC(=O)[C@H](CO)NC(=O)[C@H](CCCNC(=N)N)N(C)C(=O)c2ccccc2CSC(C)(C)[C@@H](C(=O)N[C@@H](Cc2ccccc2)C(=O)N[C@H](CCC(=O)O)C(=O)N[C@H](CCCCN)C(N)=O)NC1=O` [compound 155] (HELM PEPTIDE1{[meR].S.D.T.L.[Pen].F.[dE].[dK].[am]}|CHEM1{[O=C(c1ccccc1C[*:2])[*:1]]}$PEPTIDE1,CHEM1,1:R1-1:R1|PEPTIDE1,CHEM1,6:R3-1:R2$$$V2.0) yielded an IC50 of 25 to 100 nM. Also, the half-life was greater than 3 h in series [2] (37° C., dimers, Table 7) and greater than 3 h in series [3].
In the case of `CC(C)C[C@@H]1NC(=O)[C@H]([C@@H](C)O)NC(=O)[C@H](CC(=O)O)NC(=O)[C@H](CO)NC(=O)[C@H](CCCNC(=N)N)N(C)C(=O)c2ccccc2CSC(C)(C)[C@@H](C(=O)N[C@@H](Cc2ccc(C(C)(C)C)cc2)C(=O)N[C@@H](CCC(=O)O)CC(=O)N[C@H](CCCCN)C(N)=O)NC1=O` [compound 222], the IC50 in series [4] and in series [1] (setting [6]) was less than 25 nM in each case.
In series [2] (setting [7]), `CC(=O)N[C@H]1CSSC[C@@H](C(=O)NCC(=O)N[C@@H](CCC(=O)O)C(N)=O)NC(=O)[C@H](CC(C)C)NC(=O)[C@H]([C@@H](C)O)NC(=O)[C@H](CC(=O)O)NC(=O)[C@H](CO)NC(=O)[C@H](CCCNC(=N)N)NC1=O` [compound 385] (HELM PEPTIDE1{[ac].C.R.S.D.T.L.C.G.E.[am]}$PEPTIDE1,PEPTIDE1,2:R3-8:R3$$$V2.0; bridges inferred) returned a half-life of less than 0.0167 h. Also, the “Redox stability (DTT)” value in series [5] was roughly 3 min.
In turn, `CC(=O)N[C@H]1CSSC[C@@H](C(N)=O)NC(=O)[C@H](CC(C)C)NC(=O)[C@H]([C@@H](C)O)NC(=O)[C@H](CC(=O)O)NC(=O)[C@H](CO)NC(=O)[C@H](CCCNC(=N)N)NC1=O` [compound 386] (HELM PEPTIDE1{[ac].C.R.S.D.T.L.C.[am]}$PEPTIDE1,PEPTIDE1,2:R3-8:R3$$$V2.0; bridges inferred) had a half-life in series [2] (setting [7]) of less than 0.0167 h. The “Redox stability (DTT)” value in series [5] was roughly 3 min.
